Where two headings read alike, the source gives them in different places.
Legend:
Experiment in all cases: cells
Assay type in all cases: cell-based
[1] = tested on: DLD-1; conditions: for IC50: read-out: Basal_Viability ATP DLD-1 summarized IC50
[2] = tested on: SW480; conditions: for IC50: read-out: Basal_Viability ATP SW480 summarized IC50
[3] = tested on: HCT116; conditions: for IC50: read-out: Basal_Viability ATP HCT116 summarized IC50
[4] = tested on: Colo320; conditions: for IC50: read-out: Basal_Viability ATP Colo 320 summarized IC50
[5] = tested on: HT-29; conditions: for IC50: read-out: Basal_Viability ATP HT-29 summarized IC50
[6] = tested on: RKO; conditions: for IC50: read-out: Basal_Viability ATP RKO summarized IC50
[7] = tested on: SNU-C1; conditions: for IC50: read-out: Basal_Viability ATP SNU-C1 summarized IC50

SMILES: CCN(CCO)CCCC(C)Nc1ccnc2cc(Cl)ccc12.O=S(=O)(O)O (stereo not drawn) [NCGC00159483-04]
- Basal_Viability ATP DLD-1 IC50/EC50 ([1]; assay number 23, basal): > 20 µM
- Basal_Viability ATP SW480 IC50/EC50 ([2]; assay number 24, basal): > 20 µM
- Basal_Viability ATP HCT116 IC50/EC50 ([3]; assay number 25, basal): > 20 µM
- Basal_Viability ATP Colo 320 IC50/EC50 ([4]; assay number 27, basal): > 20 µM
- Basal_Viability ATP HT-29 IC50/EC50 ([5]; assay number 28, basal): > 20 µM
- Basal_Viability ATP RKO IC50/EC50 ([6]; assay number 29, basal): > 20 µM
- Basal_Viability ATP SNU-C1 IC50/EC50 ([7]; assay number 30, basal): > 20 µM

SMILES: CC(C)NCC(O)COc1ccc(CCOCC2CC2)cc1 (stereo not drawn) [NCGC00015159-11]
- Basal_Viability ATP DLD-1 IC50/EC50 ([1]; assay number 23): > 20 µM
- Basal_Viability ATP SW480 IC50/EC50 ([2]; assay number 24): > 20 µM
- Basal_Viability ATP HCT116 IC50/EC50 ([3]; assay number 25, basal): > 20 µM
- Basal_Viability ATP Colo 320 IC50/EC50 ([4]; assay number 27): 6.1657 µM
- Basal_Viability ATP HT-29 IC50/EC50 ([5]; assay number 28): > 20 µM
- Basal_Viability ATP RKO IC50/EC50 ([6]; assay number 29): > 20 µM
- Basal_Viability ATP SNU-C1 IC50/EC50 ([7]; assay number 30): > 20 µM

SMILES: Cc1ccc(Cl)c(Nc2ccccc2C(=O)[O-])c1Cl.[Na+] [NCGC00023217-08]
- Basal_Viability ATP DLD-1 IC50/EC50 ([1]; assay number 23, basal): 15.1129 µM
- Basal_Viability ATP SW480 IC50/EC50 ([2]; assay number 24, basal): > 20 µM
- Basal_Viability ATP HCT116 IC50/EC50 ([3]; assay number 25, basal): > 20 µM
- Basal_Viability ATP Colo 320 IC50/EC50 ([4]; assay number 27, basal): > 20 µM
- Basal_Viability ATP HT-29 IC50/EC50 ([5]; assay number 28, basal): > 20 µM
- Basal_Viability ATP RKO IC50/EC50 ([6]; assay number 29, basal): > 20 µM
- Basal_Viability ATP SNU-C1 IC50/EC50 ([7]; assay number 30, basal): > 20 µM

SMILES: CNS(=O)(=O)Cc1ccc2[nH]cc(CCN(C)C)c2c1 [NCGC00095838-04]
- Basal_Viability ATP DLD-1 IC50/EC50 ([1]; assay number 23, basal): > 20 µM
- Basal_Viability ATP SW480 IC50/EC50 ([2]; assay number 24, basal): > 6.6667 µM
- Basal_Viability ATP HCT116 IC50/EC50 ([3]; assay number 25, basal): > 20 µM
- Basal_Viability ATP Colo 320 IC50/EC50 ([4]; assay number 27, basal): > 20 µM
- Basal_Viability ATP HT-29 IC50/EC50 ([5]; assay number 28, basal): > 20 µM
- Basal_Viability ATP RKO IC50/EC50 ([6]; assay number 29, basal): > 20 µM
- Basal_Viability ATP SNU-C1 IC50/EC50 ([7]; assay number 30, basal): > 20 µM

SMILES: Oc1c(Cl)cc(Cl)c(Cl)c1Cc1c(O)c(Cl)cc(Cl)c1Cl [NCGC00091195-08]
- IC50 [1]: 0.0157 µM
- IC50 [2]: 0.003 µM
- IC50 [3]: 0.0312 µM
- IC50 [4]: 0.0572 µM
- IC50 [5]: 0.46 µM
- IC50 [6]: 0.108 µM
- IC50 [7]: 0.032 µM

SMILES: O.O=C1[O][Bi][O]c2ccccc21 [NCGC00166299-03]
- Basal_Viability ATP DLD-1 IC50/EC50 ([1]; assay number 23, basal): > 20 µM
- Basal_Viability ATP SW480 IC50/EC50 ([2]; assay number 24, basal): > 20 µM
- Basal_Viability ATP HCT116 IC50/EC50 ([3]; assay number 25, basal): > 20 µM
- Basal_Viability ATP Colo 320 IC50/EC50 ([4]; assay number 27, basal): > 20 µM
- Basal_Viability ATP HT-29 IC50/EC50 ([5]; assay number 28, basal): > 20 µM
- Basal_Viability ATP RKO IC50/EC50 ([6]; assay number 29, basal): > 20 µM
- Basal_Viability ATP SNU-C1 IC50/EC50 ([7]; assay number 30, basal): 15.3838 µM

SMILES: O=C(O)c1ccccc1S [NCGC00018107-05]
- IC50 ([1]; assay number 23, basal): > 20 µM
- IC50 ([2]; assay number 24, basal): > 20 µM
- IC50 ([3]; assay number 25, basal): > 20 µM
- IC50 ([4]; assay number 27, basal): > 20 µM
- IC50 ([5]; assay number 28, basal): > 20 µM
- IC50 ([6]; assay number 29, basal): > 20 µM
- IC50 ([7]; assay number 30, basal): > 20 µM

SMILES: Cc1c(NC(=O)c2cccnc2)c(=O)n(-c2ccccc2)n1C [NCGC00016605-08]
- IC50/EC50, Basal_Viability ATP DLD-1 (assay number 23) ([1]; basal): > 20 µM
- IC50/EC50, Basal_Viability ATP SW480 (assay number 24) ([2]; basal): > 20 µM
- IC50/EC50, Basal_Viability ATP HCT116 (assay number 25) ([3]; basal): > 20 µM
- IC50/EC50, Basal_Viability ATP Colo 320 (assay number 27) ([4]; basal): > 20 µM
- IC50/EC50, Basal_Viability ATP HT-29 (assay number 28) ([5]; basal): > 20 µM
- IC50/EC50, Basal_Viability ATP RKO (assay number 29) ([6]; basal): > 20 µM
- IC50/EC50, Basal_Viability ATP SNU-C1 (assay number 30) ([7]; basal): > 20 µM

SMILES: CC(C)=CC1C(C(=O)OCN2C(=O)C3=C(CCCC3)C2=O)C1(C)C (stereo not drawn) [NCGC00168352-02]
- IC50/EC50, Basal_Viability ATP DLD-1 (assay number 23) ([1]; basal): > 20 µM
- IC50/EC50, Basal_Viability ATP SW480 (assay number 24) ([2]; basal): > 20 µM
- IC50/EC50, Basal_Viability ATP HCT116 (assay number 25) ([3]; basal): > 20 µM
- IC50/EC50, Basal_Viability ATP Colo 320 (assay number 27) ([4]; basal): > 20 µM
- IC50/EC50, Basal_Viability ATP HT-29 (assay number 28) ([5]; basal): > 20 µM
- IC50/EC50, Basal_Viability ATP RKO (assay number 29) ([6]; basal): > 20 µM
- IC50/EC50, Basal_Viability ATP SNU-C1 (assay number 30) ([7]; basal): > 20 µM

From PMC4503722, “Novel Phenotypic Outcomes Identified for a Public Collection of Approved Drugs from a Publicly Accessible Panel of Assays” (PLoS ONE, 2015)
